Where “and” joins values, the source holds several entries; their conditions need not be identical. Equal entries are not always repeated. Toxic doses and inconclusive results are not listed.
System: CD2F1 mice, L1210 leukemia sc, survival T/C
Assay: NCI In Vivo Anticancer Drug Screen. Data for tumor model L1210 Leukemia (subcutaneous) in CD2F1 (CDF1) mice
Details: endpoint: median survival time, higher = longer survival
In short: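 T/C ratio: treated-group survival or tumor size over vehicle-control group measurement, in mice carrying transplanted tumors.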

CN(Cc1cnc2nc(N)nc(N)c2n1)c1c(Cl)cc(C(=O)NC(CCC(=O)O)C(=O)O)cc1Cl (configuration not stated)
T/C (dose: 5.83 mg/kg/injection, schedule: Q#A X Z (oral), vehicle: other): 163 % of control | T/C (dose: 8.1 mg/kg/injection, schedule: Q#A X Z (oral), vehicle: other): 220 % of control | T/C (dose: 8.1 mg/kg/injection, schedule: Q#A X Z (sc), vehicle: other): 655 % of control | T/C (dose: 9.72 mg/kg/injection, schedule: Q#A X Z (oral), vehicle: other): 204 % of control | T/C (dose: 9.72 mg/kg/injection, schedule: Q#A X Z (sc), vehicle: other): 345 % of control | T/C (dose: 13.5 mg/kg/injection, schedule: Q#A X Z (oral), vehicle: other): 230 % of control | T/C (dose: 13.5 mg/kg/injection, schedule: Q#A X Z (sc), vehicle: other): 730 % of control | T/C (dose: 16.2 mg/kg/injection, schedule: Q#A X Z (sc), vehicle: other): 322 % of control | T/C (dose: 22.5 mg/kg/injection, schedule: Q#A X Z (oral), vehicle: other): 190 % of control | T/C (dose: 22.5 mg/kg/injection, schedule: Q#A X Z (sc), vehicle: other): 690 % of control | T/C (dose: 25.0 mg/kg/injection, schedule: Q01DX Z (sc), vehicle: other): 500 % of control | T/C (dose: 27.0 mg/kg/injection, schedule: Q01DX Z (oral), vehicle: other): 186 % of control and 215 % of control | T/C (dose: 27.0 mg/kg/injection, schedule: Q01DX Z (sc), vehicle: other): 331 % of control and 565 % of control and 900 % of control | T/C (dose: 27.0 mg/kg/injection, schedule: Q#A X Z (sc), vehicle: other): 786 % of control | T/C (dose: 28.0 mg/kg/injection, schedule: Q01DX Z (oral), vehicle: other): 194 % of control | T/C (dose: 37.5 mg/kg/injection, schedule: Q#A X Z (oral), vehicle: other): 175 % of control | T/C (dose: 37.5 mg/kg/injection, schedule: Q#A X Z (sc), vehicle: other): 565 % of control | T/C (dose: 45.0 mg/kg/injection, schedule: Q01DX Z (oral), vehicle: other): 181 % of control and 210 % of control | T/C (dose: 45.0 mg/kg/injection, schedule: Q01DX Z (sc), vehicle: other): 363 % of control and 825 % of control | T/C (dose: 47.0 mg/kg/injection, schedule: Q01DX Z (oral), vehicle: other): 222 % of control | T/C (dose: 47.0 mg/kg/injection, schedule: Q01DX Z (sc), vehicle: other): 816 % of control | T/C (dose: 50.0 mg/kg/injection, schedule: Q01DX Z (sc), vehicle: other): 500 % of control | T/C (dose: 62.5 mg/kg/injection, schedule: Q#A X Z (sc), vehicle: other): 175 % of control | T/C (dose: 75.0 mg/kg/injection, schedule: Q01DX Z (oral), vehicle: other): 159 % of control and 190 % of control | T/C (dose: 75.0 mg/kg/injection, schedule: Q01DX Z (sc), vehicle: other): 231 % of control and 554 % of control and 800 % of control | T/C (dose: 75.0 mg/kg/injection, schedule: Q03DX Z (oral), vehicle: other): 100 % of control | T/C (dose: 75.0 mg/kg/injection, schedule: Q#A X Z (oral), vehicle: other): 122 % of control | T/C (dose: 78.0 mg/kg/injection, schedule: Q01DX Z (oral), vehicle: other): 188 % of control | T/C (dose: 78.0 mg/kg/injection, schedule: Q01DX Z (sc), vehicle: other): 272 % of control | T/C (dose: 108.0 mg/kg/injection, schedule: Q## X Z (oral), vehicle: other): 110 % of control | T/C (dose: 108.0 mg/kg/injection, schedule: Q## X Z (sc), vehicle: other): 115 % of control | T/C (dose: 125.0 mg/kg/injection, schedule: Q01DX Z (oral), vehicle: other): 172 % of control and 200 % of control | T/C (dose: 125.0 mg/kg/injection, schedule: Q01DX Z (sc), vehicle: other): 205 % of control | T/C (dose: 125.0 mg/kg/injection, schedule: Q03DX Z (oral), vehicle: other): 100 % of control | T/C (dose: 125.0 mg/kg/injection, schedule: Q03DX Z (sc), vehicle: other): 513 % of control | T/C (dose: 130.0 mg/kg/injection, schedule: Q01DX Z (oral), vehicle: other): 200 % of control | T/C (dose: 130.0 mg/kg/injection, schedule: Q01DX Z (sc), vehicle: other): 194 % of control | T/C (dose: 180.0 mg/kg/injection, schedule: Q## X Z (oral), vehicle: other): 115 % of control | T/C (dose: 180.0 mg/kg/injection, schedule: Q## X Z (sc), vehicle: other): 115 % of control | T/C (dose: 208.0 mg/kg/injection, schedule: Q03DX Z (oral), vehicle: other): 113 % of control | T/C (dose: 208.0 mg/kg/injection, schedule: Q03DX Z (sc), vehicle: other): 272 % of control | T/C (dose: 216.0 mg/kg/injection, schedule: Q01DX Z (oral), vehicle: other): 172 % of control | T/C (dose: 216.0 mg/kg/injection, schedule: Q01DX Z (sc), vehicle: other): 155 % of control | T/C (dose: 250.0 mg/kg/injection, schedule: Q## X Z (sc), vehicle: other): 500 % of control | T/C (dose: 300.0 mg/kg/injection, schedule: Q## X Z (oral), vehicle: other): 110 % of control | T/C (dose: 300.0 mg/kg/injection, schedule: Q## X Z (sc), vehicle: other): 120 % of control | T/C (dose: 347.0 mg/kg/injection, schedule: Q03DX Z (oral), vehicle: other): 109 % of control | T/C (dose: 347.0 mg/kg/injection, schedule: Q03DX Z (sc), vehicle: other): 195 % of control | T/C (dose: 360.0 mg/kg/injection, schedule: Q01DX Z (oral), vehicle: other): 166 % of control | T/C (dose: 500.0 mg/kg/injection, schedule: Q## X Z (oral), vehicle: other): 115 % of control | T/C (dose: 500.0 mg/kg/injection, schedule: Q## X Z (sc), vehicle: other): 370 % of control and 500 % of control | T/C (dose: 577.0 mg/kg/injection, schedule: Q03DX Z (oral), vehicle: other): 150 % of control | T/C (dose: 577.0 mg/kg/injection, schedule: Q03DX Z (sc), vehicle: other): 209 % of control | T/C (dose: 833.0 mg/kg/injection, schedule: Q## X Z (oral), vehicle: other): 155 % of control | T/C (dose: 833.0 mg/kg/injection, schedule: Q## X Z (sc), vehicle: other): 360 % of control | T/C (dose: 961.0 mg/kg/injection, schedule: Q03DX Z (oral), vehicle: other): 122 % of control | T/C (dose: 961.0 mg/kg/injection, schedule: Q03DX Z (sc), vehicle: other): 172 % of control

O=C(Nc1nncs1)c1cccs1
T/C (dose: 50.0 mg/kg/injection, schedule: Q01DX009 (ip), vehicle: saline with Tween-80): 99 % of control | T/C (dose: 100.0 mg/kg/injection, schedule: Q01DX009 (ip), vehicle: saline with Tween-80): 95 % of control | T/C (dose: 200.0 mg/kg/injection, schedule: Q01DX009 (ip), vehicle: saline with Tween-80): 100 % of control | T/C (dose: 400.0 mg/kg/injection, schedule: Q01DX009 (ip), vehicle: saline with Tween-80): 100 % of control | T/C (dose: 800.0 mg/kg/injection, schedule: Q01DX009 (ip), vehicle: saline with Tween-80): 121 % of control

NCCCNCCCCNC(=O)C(O)NC(=O)CC(O)CCCCN=C(N)N (configuration not stated)
T/C (dose: 3.0 mg/kg/injection, schedule: Q01DX009 (ip), vehicle: saline): 156 % of control | T/C (dose: 6.0 mg/kg/injection, schedule: Q01DX009 (ip), vehicle: saline): 168 % of control | T/C (dose: 6.25 mg/kg/injection, schedule: Q01DX009 (ip), vehicle: saline): 163 % of control | T/C (dose: 12.0 mg/kg/injection, schedule: Q01DX009 (ip), vehicle: saline): 196 % of control | T/C (dose: 12.5 mg/kg/injection, schedule: Q01DX009 (ip), vehicle: saline): 184 % of control | T/C (dose: 25.0 mg/kg/injection, schedule: Q01DX009 (ip), vehicle: saline): 208 % of control and 210 % of control | T/C (dose: 50.0 mg/kg/injection, schedule: Q01DX009 (ip), vehicle: saline): 198 % of control and 216 % of control | T/C (dose: 100.0 mg/kg/injection, schedule: Q01DX009 (ip), vehicle: saline): 220 % of control

O=S1(=O)CS(=O)(=O)OCCO1
T/C (dose: 25.0 mg/kg/injection, schedule: Q01DX009 (ip), vehicle: Klucel (hydroxypropylcellulose) (HPC)): 216 % of control | T/C (dose: 50.0 mg/kg/injection, schedule: Q01DX009 (ip), vehicle: Klucel (hydroxypropylcellulose) (HPC)): 175 % of control

c1ccc(CNc2ncnc3[nH]ncc23)cc1
T/C (dose: 8.4 mg/kg/injection, schedule: Q01DX Z (sc), vehicle: methylcellulose (MC)): 105 % of control | T/C (dose: 14.0 mg/kg/injection, schedule: Q01DX Z (sc), vehicle: methylcellulose (MC)): 100 % of control | T/C (dose: 23.0 mg/kg/injection, schedule: Q01DX Z (sc), vehicle: methylcellulose (MC)): 100 % of control | T/C (dose: 39.0 mg/kg/injection, schedule: Q01DX Z (sc), vehicle: methylcellulose (MC)): 100 % of control | T/C (dose: 65.0 mg/kg/injection, schedule: Q01DX Z (sc), vehicle: methylcellulose (MC)): 111 % of control | T/C (dose: 108.0 mg/kg/injection, schedule: Q01DX Z (sc), vehicle: methylcellulose (MC)): 122 % of control

O=C(CCBr)N1CCN(C(=O)CCBr)CC1
T/C (dose: 28.0 mg/kg/injection, schedule: Q01DX Z (sc), vehicle: methylcellulose (MC)): 111 % of control | T/C (dose: 47.0 mg/kg/injection, schedule: Q01DX Z (sc), vehicle: methylcellulose (MC)): 111 % of control | T/C (dose: 78.0 mg/kg/injection, schedule: Q01DX Z (sc), vehicle: methylcellulose (MC)): 122 % of control | T/C (dose: 360.0 mg/kg/injection, schedule: Q01DX Z (sc), vehicle: methylcellulose (MC)): 122 % of control

Reference: PubChem BioAssay AID258 (DTP/NCI, 2004)
